Measured values: ChEMBL document CHEMBL3352172, “Discovery of S-adenosyl-L-homocysteine hydrolase inhibitors based on non-adenosine analogs” (Bioorg Med Chem Lett, 2014)
pIC50: −log10 of the molar value.

The compounds below were run against Adenosylhomocysteinase (Homo sapiens, UniProt P23526) (assay: Inhibition of human recombinant S-adenosyl-L-homocysteine hydrolase assessed as AdoHcy hydrolysis activity by HPLC analysis).
Adenosylhomocysteinase, sequence (P23526 whole entry): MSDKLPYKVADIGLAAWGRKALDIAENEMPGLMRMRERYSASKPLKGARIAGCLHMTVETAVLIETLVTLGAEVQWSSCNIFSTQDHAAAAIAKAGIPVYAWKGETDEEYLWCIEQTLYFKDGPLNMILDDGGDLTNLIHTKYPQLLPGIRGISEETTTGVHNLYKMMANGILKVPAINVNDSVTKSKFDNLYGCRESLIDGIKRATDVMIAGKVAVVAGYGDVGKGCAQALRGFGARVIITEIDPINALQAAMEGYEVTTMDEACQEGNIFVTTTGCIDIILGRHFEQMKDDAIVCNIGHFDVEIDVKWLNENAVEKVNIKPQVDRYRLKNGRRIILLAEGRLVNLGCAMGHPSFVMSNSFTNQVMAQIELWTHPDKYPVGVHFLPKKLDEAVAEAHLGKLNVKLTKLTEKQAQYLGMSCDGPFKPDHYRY
CN(C(=O)CN(CC(=O)NC1CCCNC1)c1cc(Cl)ccc1Oc1ccc(Cl)cc1)C1Cc2ccccc2C1 (configuration not stated) gave a pIC50 of 5.92.
Compound CN(C(=O)CN(CC(=O)NCCN1CCCC1)c1cc(Cl)ccc1Oc1ccc(Cl)cc1)C1CCNCC1 has a pIC50 of less than 4.00.
O=C(CN(CC(=O)N1CCC(c2ccccc2)CC1)c1cc(Cl)ccc1Oc1ccc(Cl)cc1)NCCN1CCCC1 gave a pIC50 of 6.01.
O=C(CN(CC(=O)NC1Cc2ccccc2C1)c1cc(Cl)ccc1Oc1ccc(Cl)cc1)NCCN1CCCC1 was tested, and the pIC50 was 4.94.
O=C(CN(CC(=O)N1CCc2ccccc2C1)c1cc(Cl)ccc1Oc1ccc(Cl)cc1)NCCN1CCCC1 gave a pIC50 of 4.77.
In the case of O=C(CN(CC(=O)N1Cc2ccccc2C1)c1cc(Cl)ccc1Oc1ccc(Cl)cc1)NCCN1CCCC1, the pIC50 was less than 4.00.
Compound CN(C(=O)CN(CC(=O)NC1CCNC1)c1cc(Cl)ccc1Oc1ccc(Cl)cc1)C1Cc2ccccc2C1 (configuration not stated) has a pIC50 of 5.82.
